Laboratory results as given in ChEMBL document CHEMBL1201862, “PubChem BioAssay data set” (2004).
Activity calls are given as the source filed them.

Legend:
SN12K1 = test: cells; type: functional; conditions: Homo sapiens
P388 = test: cells; type: functional; conditions: Mus musculus
P388/ADR = test: cells; type: functional; conditions: Mus musculus
Cytochrome P450 3A4 = Cytochrome P450 3A4 (Homo sapiens, UniProt P08684);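 note: CYP3A4 tested as one member of a cytochrome P450 panel screen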
Cytochrome P450 1A2 = target: T1, Cytochrome P450 1A2 (Homo sapiens, UniProt P05177);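 note: PubChem cytochrome P450 panel assay, CYP1A2 panel member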
T1 sequence (P05177 whole entry): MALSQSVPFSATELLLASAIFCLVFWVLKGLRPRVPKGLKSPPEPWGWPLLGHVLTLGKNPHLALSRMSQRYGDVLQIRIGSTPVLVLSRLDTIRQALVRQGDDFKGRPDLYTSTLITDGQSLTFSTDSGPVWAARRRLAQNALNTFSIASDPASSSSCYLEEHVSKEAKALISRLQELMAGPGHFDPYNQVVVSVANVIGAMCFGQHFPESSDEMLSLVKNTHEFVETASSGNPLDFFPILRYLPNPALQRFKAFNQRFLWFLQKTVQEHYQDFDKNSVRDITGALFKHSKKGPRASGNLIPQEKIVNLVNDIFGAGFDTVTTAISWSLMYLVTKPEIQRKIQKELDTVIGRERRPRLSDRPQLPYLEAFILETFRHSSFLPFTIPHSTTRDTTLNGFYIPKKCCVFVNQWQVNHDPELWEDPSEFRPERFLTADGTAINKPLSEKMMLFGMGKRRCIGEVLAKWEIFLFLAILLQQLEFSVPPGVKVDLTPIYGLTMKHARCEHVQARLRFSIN

[1] = system: Streptococcus sp. 'group A'; test: growth inhibition of control SK(-) GAS strain, dose response, counter-screen for streptokinase expression inhibitor project, luminescence, kanamycin, BacTiterGlo, confirmation (AID 1900); type: functional, organism-based
Streptokinase A = target: T2, Streptokinase A (Streptococcus pyogenes serotype M1, UniProt P10520); test: S. pyogenes streptokinase expression inhibitors, potency, dose response, plasminogen activation absorbance, OD405 (AID 1914); type: functional, Streptococcus pyogenes M1 GAS;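 note: secreted streptokinase activity via plasminogen activation per viability signal from cell pellet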
T2 sequence (P10520 whole entry): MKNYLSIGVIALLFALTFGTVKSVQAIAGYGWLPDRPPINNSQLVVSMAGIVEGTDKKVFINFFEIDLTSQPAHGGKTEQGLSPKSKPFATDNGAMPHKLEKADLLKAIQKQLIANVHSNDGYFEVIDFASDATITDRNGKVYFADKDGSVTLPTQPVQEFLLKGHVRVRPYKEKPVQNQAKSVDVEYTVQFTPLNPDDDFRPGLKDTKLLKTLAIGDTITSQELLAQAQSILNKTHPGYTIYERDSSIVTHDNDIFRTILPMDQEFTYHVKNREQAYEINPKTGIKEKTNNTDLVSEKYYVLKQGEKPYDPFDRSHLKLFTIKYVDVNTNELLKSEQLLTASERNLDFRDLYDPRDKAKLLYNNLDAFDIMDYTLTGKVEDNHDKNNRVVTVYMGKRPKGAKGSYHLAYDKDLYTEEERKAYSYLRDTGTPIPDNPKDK

[2] = inhibitors of intracellular T. cruzi replication, confirmation, NIH3T3 host cells, beta-gal luminescence (AID 2044); type: functional, cell-based;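 note: intracellular parasites grown in NIH/3T3 mouse fibroblasts as host cells; luminescent beta-galactosidase reporter signal from transgenic T. cruzi replicating inside host cells; inhibitors lower the luminescence signal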
[3] = cytotoxicity toward NIH3T3 fibroblasts, dose response, counter-screen, cell-based, ATP luminescence, mouse fibroblasts (AID 2010); type: functional;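 note: cells exposed to compound for about 90 hours before reading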
Streptococcus = test: Group A Streptococcus viability loss, dose response, counter-screen for streptokinase expression inhibitor project, luminescence, BacTiterGlo (AID 1915); type: functional, organism-based;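 note: potency for reduction of bacterial viability or growth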
Cytochrome P450 2C19 = Cytochrome P450 2C19 (Homo sapiens, UniProt P33261); test: Cytochrome panel assay with activity outcomes. Panel member name: p450-cyp2c19 Compounds with AC50 equal or less than 10 uM are considered active; type: functional; conditions: read-out: AC50
Cytochrome P450 2D6 = Cytochrome P450 2D6 (Homo sapiens, UniProt P10635);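 note: CYP2D6 member of a cytochrome P450 panel assay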
Cytochrome P450 2C9 = Cytochrome P450 2C9 (Homo sapiens, UniProt P11712)
Cytochrome P450 2C9, sequence (P11712 whole entry): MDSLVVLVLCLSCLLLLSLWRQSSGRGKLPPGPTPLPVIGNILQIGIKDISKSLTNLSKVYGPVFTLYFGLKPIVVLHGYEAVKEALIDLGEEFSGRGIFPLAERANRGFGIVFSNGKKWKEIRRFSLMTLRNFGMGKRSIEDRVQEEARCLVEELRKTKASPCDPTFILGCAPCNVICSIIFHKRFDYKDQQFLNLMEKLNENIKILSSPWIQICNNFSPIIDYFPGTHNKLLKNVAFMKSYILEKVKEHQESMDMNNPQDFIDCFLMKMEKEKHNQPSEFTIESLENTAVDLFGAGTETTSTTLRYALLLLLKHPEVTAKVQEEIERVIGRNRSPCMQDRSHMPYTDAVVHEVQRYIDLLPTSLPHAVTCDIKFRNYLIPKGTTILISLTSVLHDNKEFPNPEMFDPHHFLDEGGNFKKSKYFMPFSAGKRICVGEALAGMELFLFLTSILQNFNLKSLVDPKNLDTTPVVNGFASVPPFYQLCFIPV

Cytochrome P450 2C19, sequence (P33261 whole entry): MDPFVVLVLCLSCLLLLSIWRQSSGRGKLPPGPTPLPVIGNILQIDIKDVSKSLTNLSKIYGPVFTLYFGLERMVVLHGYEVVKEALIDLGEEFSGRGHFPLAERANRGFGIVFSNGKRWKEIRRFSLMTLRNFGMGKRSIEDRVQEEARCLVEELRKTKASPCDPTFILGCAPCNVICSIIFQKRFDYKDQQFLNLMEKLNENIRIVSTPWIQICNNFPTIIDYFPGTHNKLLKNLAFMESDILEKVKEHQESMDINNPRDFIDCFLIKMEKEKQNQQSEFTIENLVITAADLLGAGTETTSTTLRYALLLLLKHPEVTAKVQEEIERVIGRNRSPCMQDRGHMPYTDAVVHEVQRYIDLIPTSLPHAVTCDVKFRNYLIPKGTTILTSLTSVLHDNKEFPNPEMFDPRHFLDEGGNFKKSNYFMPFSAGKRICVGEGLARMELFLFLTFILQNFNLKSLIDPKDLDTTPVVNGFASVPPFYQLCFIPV
Cytochrome P450 2D6, sequence (P10635 whole entry): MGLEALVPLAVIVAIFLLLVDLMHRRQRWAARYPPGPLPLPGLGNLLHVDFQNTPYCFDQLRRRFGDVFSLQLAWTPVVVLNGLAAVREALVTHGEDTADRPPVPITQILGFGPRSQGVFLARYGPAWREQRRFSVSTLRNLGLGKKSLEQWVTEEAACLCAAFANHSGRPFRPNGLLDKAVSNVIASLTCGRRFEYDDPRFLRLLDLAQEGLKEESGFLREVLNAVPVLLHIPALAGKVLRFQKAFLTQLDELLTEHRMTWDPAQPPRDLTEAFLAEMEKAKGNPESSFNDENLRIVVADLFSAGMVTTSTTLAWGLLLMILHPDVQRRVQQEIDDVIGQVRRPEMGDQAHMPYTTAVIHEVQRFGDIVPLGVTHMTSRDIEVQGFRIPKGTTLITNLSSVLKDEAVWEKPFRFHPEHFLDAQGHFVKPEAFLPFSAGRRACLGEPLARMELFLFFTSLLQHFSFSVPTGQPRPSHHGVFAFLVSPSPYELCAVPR
Cytochrome P450 3A4, sequence (P08684 whole entry): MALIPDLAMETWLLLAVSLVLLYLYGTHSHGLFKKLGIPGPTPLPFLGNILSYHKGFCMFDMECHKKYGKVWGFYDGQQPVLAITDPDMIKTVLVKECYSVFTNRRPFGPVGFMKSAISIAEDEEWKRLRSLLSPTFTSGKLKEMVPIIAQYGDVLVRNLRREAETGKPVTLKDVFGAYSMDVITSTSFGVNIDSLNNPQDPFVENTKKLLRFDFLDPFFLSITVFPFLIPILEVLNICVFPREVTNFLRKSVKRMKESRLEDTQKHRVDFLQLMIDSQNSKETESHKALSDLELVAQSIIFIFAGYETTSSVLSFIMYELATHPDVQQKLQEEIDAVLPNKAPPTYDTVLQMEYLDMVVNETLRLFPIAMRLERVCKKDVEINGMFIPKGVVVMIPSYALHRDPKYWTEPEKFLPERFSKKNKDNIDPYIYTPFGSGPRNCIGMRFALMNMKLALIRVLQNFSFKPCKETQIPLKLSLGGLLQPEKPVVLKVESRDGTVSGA

Row | Compound | GI50 (SN12K1) | GI50 (P388) | GI50 (P388/ADR) | other results
1 | C=C1C(=O)O[C@H]2[C@H]1[C@@H](OC(=O)C=C(C)C)CC1=C[C@@H](C[C@@]3(C)O[C@@H]23)OC1=O | 6.46 µM (inactive) | 0.139 µM (active) |  | 
2 | C[C@@H]1[C@@H]2[C@@H](C=C3C4CCC5Cc6nc7c(nc6C[C@@]5(C)C4C[C@H](O)[C@]32CO)CC2CCC3C4=C[C@H]5O[C@@]6(OC(C)(CO)C[C@@H]6O)[C@H](C)[C@@]5(O)[C@]4(C)[C@@H](O)CC3[C@]2(C)C7)O[C@]12CCC(C)(C)O2 (stereo not given in full) | 0.000365 µM (active) | 0.000365 µM (active) | 0.0918 µM (active) | 
3 | O=C(O)[C@@H]1[C@@H](C(=O)NCc2ccncc2)[C@@H]2C=C[C@@H]1O2 |  |  |  | AC50 (Cytochrome P450 3A4): 3.98 µM (inconclusive)
4 | CCOC(=O)CC1NC(=O)c2ccccc21 (stereo not given) |  |  |  | AC50 (Cytochrome P450 1A2): 28.2 µM (inconclusive)
5 | O=c1c(-c2ccccc2)nc2cnc(Nc3ccccc3)nc2n1C[C@H]1CCCO1 |  |  |  | AC50 (Cytochrome P450 3A4): 12.6 µM (inconclusive)
6 | O=C(/C=C/c1ccco1)Nc1nc(-c2ccccn2)cs1 |  |  |  | EC50 [1]: 18 µM (active); EC50 (Streptokinase A): > 150 µM (not active); EC50 [2]: 4.02 µM (active); EC50 [3]: 11.6 µM (active); EC50 (Streptococcus): > 150 µM (not active)
7 | OC(COc1ccc(OCC(O)CN2CCCCCC2)cc1)CN1CCCCCC1 (stereo not given) |  |  |  | AC50 (Cytochrome P450 2C19): 1.78 µM (inconclusive); AC50 (Cytochrome P450 2D6): 15.8 µM (inconclusive)
8 | Cc1noc(C)c1-c1ccc2ncnc(NCc3ccccc3)c2c1 |  |  |  | AC50 (Cytochrome P450 2D6): 39.8 µM (inconclusive)
9 | O=C(c1cc(-c2ccc(Cl)cc2Cl)on1)N1CCN(C(=O)c2ccco2)CC1 |  |  |  | AC50 (Cytochrome P450 2D6): 20 µM (inconclusive)
10 | C=CCc1cccc(/C=N\N/C(N)=N/O)c1O | 2.01 µM (inactive) | 1.19 µM (inactive) | 0.78 µM (active) | 
11 | COc1cc(CCCOC2OC(COC3OCC(O)C(O)C3O)C(O)C(O)C2O)cc2cc(-c3ccc4c(c3)OCO4)oc12 (stereo not given) | > 175 µM (inactive) | > 175 µM (inactive) | > 175 µM (inactive) | 
12 | COc1cccc(OCc2nnc(SCC(=O)NCc3ccco3)n2C)c1 |  |  |  | AC50 (Cytochrome P450 2C19): 25.1 µM (inconclusive); AC50 (Cytochrome P450 2C9): 15.8 µM (inconclusive)
13 | COc1ccc(N[C@@H]2c3cc4c(cc3C(c3cc(OC)c(O)c(OC)c3)[C@H]3C(=O)OCC32)OCO4)cc1OC (stereo not given in full) |  | < 0.01 µM (active) | 0.269 µM (active) | 
14 | Oc1c(CNCCCN2CCCC2)cc(Cl)c2cccnc12 | 0.942 µM (active) | 1.69 µM (inactive) | 1.1 µM (active) | 
15 | CCOC(=O)CN(c1ccccn1)S(=O)(=O)c1ccccc1 |  |  |  | AC50 (Cytochrome P450 2C19): 31.6 µM (inconclusive); AC50 (Cytochrome P450 2C9): 3.55 µM (inconclusive)
16 | Cc1ccc2cc3cccc(C(=O)NCCN(C)C)c3nc2c1 | 0.426 µM (active) | 0.257 µM (active) | 0.252 µM (active) | 
17 | CCC(C)(C)n1nnnc1C(C(C)C)N(CCCO)Cc1cc2cc(C)ccc2nc1O (stereo not given) |  |  |  | AC50 (Cytochrome P450 2C19): 25.1 µM (inconclusive); AC50 (Cytochrome P450 1A2): 15.8 µM (inconclusive)
18 | CNC(=O)OCc1nc(SC2CCCCO2)n(C)c1COC(=O)NC (stereo not given) | > 100 µM (inactive) | > 100 µM (inactive) | > 100 µM (inactive) | 
19 | Nc1nc(SCCc2ccccc2)c2nc[nH]c2n1 |  |  |  | AC50 (Cytochrome P450 2D6): 3.98 µM (inconclusive); AC50 (Cytochrome P450 2C9): 3.98 µM (inconclusive)
20 | CCOC(=O)CSC1=C(C#N)C(C)C2=C(O)CCCC2=N1 (stereo not given) |  |  |  | AC50 (Cytochrome P450 2C9): 22.4 µM (inconclusive)
21 | COC(=O)N1CCC2(CCCN(Cc3ccccc3OC)C2)CC1 |  |  |  | AC50 (Cytochrome P450 3A4): 6.31 µM (inconclusive)
22 | O=NN(CCCl)C(=O)NC1CCCCC1 [LOMUSTINE] | 32.6 µM (inactive) | 4.23 µM (inactive) | 4.56 µM (inactive) | 
23 | Cc1ccc(C(c2ccc(C)o2)c2cccc([N+](=O)[O-])c2O)o1 |  |  |  | AC50 (Cytochrome P450 2D6): 14.1 µM (inconclusive); AC50 (Cytochrome P450 3A4): 28.2 µM (inconclusive)
24 | COc1ncc2nc(CCc3ccccc3)c(=O)n(CCC#N)c2n1 |  |  |  | AC50 (Cytochrome P450 2D6): 25.1 µM (inconclusive)
